Assay results published in ChEMBL document CHEMBL5723379, “Affinity On-target Cellular Literature for EUbOPEN Chemogenomic Library” (2024).
One block for each molecule: values may come before it.

Columns and labels:
[1] = target: Sodium- and chloride-dependent glycine transporter 1 (Homo sapiens, UniProt P48067); test: Affinity On-target Cellular interaction: (Inhibition of radiolabelled [3H]glycine uptake in human SK-N-MC cells) EUB0002599a SLC6A9; type: functional, cell-based; set-up: mode of action Inhibitor, recommended concentration 1 uM
[2] = target: T1, Nuclear receptor subfamily 1 group I member 2 (Homo sapiens, UniProt O75469); test: Affinity On-target Cellular interaction: (Reporter gene assay (HEK293T cells)) EUB0002359a NR1I2; type: functional, cell-based, HEK-293T; set-up: mode of action Agonist, recommended concentration 1 uM
[3] = target: T2, Nuclear receptor ROR-beta (Homo sapiens, UniProt Q92753); test: Affinity On-target Cellular interaction: (Reporter gene assay (HEK293T cells)) EUB0001157a RORB; type: functional, cell-based, HEK-293T; set-up: mode of action Inverse Agonist, recommended concentration 10 uM
T2 sequence (Q92753 whole entry): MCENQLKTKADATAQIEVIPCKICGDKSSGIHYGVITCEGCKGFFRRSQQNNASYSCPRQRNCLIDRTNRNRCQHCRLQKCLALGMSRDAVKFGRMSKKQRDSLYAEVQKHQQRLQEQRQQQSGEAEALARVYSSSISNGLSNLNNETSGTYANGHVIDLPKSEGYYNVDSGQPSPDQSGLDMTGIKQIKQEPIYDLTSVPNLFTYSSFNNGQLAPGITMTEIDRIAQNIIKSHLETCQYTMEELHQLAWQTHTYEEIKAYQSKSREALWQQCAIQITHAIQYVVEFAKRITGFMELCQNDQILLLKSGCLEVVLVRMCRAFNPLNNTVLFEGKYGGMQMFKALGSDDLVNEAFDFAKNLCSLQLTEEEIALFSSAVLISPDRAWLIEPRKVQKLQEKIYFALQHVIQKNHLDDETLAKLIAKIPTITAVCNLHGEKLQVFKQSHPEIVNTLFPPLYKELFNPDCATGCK

[4] = target: T3, Nuclear receptor ROR-gamma (Homo sapiens, UniProt P51449); test: Affinity On-target Cellular interaction: (Reporter gene assay (HEK293T cells)) EUB0001157a RORC; type: functional, cell-based, HEK-293T; set-up: mode of action Inverse Agonist, recommended concentration 10 uM
T3 sequence (P51449 whole entry): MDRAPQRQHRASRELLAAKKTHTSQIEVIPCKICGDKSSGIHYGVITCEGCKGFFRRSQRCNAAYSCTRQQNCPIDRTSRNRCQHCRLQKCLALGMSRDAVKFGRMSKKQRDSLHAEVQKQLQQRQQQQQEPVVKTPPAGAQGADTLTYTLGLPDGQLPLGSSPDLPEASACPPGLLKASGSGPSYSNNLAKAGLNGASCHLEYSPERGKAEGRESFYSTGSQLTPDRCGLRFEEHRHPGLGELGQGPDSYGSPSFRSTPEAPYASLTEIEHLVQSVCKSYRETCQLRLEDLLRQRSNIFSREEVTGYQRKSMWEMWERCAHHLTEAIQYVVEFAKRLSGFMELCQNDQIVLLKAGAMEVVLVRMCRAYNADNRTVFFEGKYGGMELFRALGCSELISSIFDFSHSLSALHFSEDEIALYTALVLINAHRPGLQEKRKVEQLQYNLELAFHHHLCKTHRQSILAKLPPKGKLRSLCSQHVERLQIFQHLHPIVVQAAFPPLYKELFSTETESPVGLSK

[5] = target: T4, Nuclear receptor ROR-alpha (Homo sapiens, UniProt P35398); test: Affinity On-target Cellular interaction: (Reporter gene assay (HEK293T cells)) EUB0001157a RORA; type: functional, cell-based, HEK-293T; set-up: mode of action Inverse Agonist, recommended concentration 10 uM
[6] = target: Histone-lysine N-methyltransferase EZH1 (Homo sapiens, UniProt Q92800); test: Affinity On-target Cellular interaction: (Protein substrate methylation in WSU-DLCL2 cells) EUB0002228a EZH1; type: functional, cell-based, WSUDLCL2; set-up: mode of action Inhibitor, recommended concentration 1 uM
[7] = target: Nuclear receptor subfamily 1 group D member 2 (Homo sapiens, UniProt Q14995); test: Affinity On-target Cellular interaction: (Reporter gene assay (HEK293T cells)) EUB0001155a NR1D2; type: functional, cell-based, HEK-293T; set-up: mode of action Agonist, recommended concentration 10 uM
[8] = target: T5, Nuclear receptor subfamily 1 group D member 1 (Homo sapiens, UniProt P20393); test: Affinity On-target Cellular interaction: (Reporter gene assay (HEK293T cells)) EUB0001155a NR1D1; type: functional, cell-based, HEK-293T; set-up: mode of action Agonist, recommended concentration 10 uM
[9] = target: T1, Nuclear receptor subfamily 1 group I member 2; test: Affinity On-target Cellular interaction: (Reporter gene assay (HEK293T cells)) EUB0002358a NR1I2; type: functional, cell-based, HEK-293T; set-up: mode of action Agonist, recommended concentration 10 uM
[10] = target: T6, Oxysterols receptor LXR-alpha (Homo sapiens, UniProt Q13133); test: Affinity On-target Cellular interaction: (Reporter gene assay (HEK293T cells)) EUB0001166a NR1H3; type: functional, cell-based, HEK-293T; set-up: mode of action Agonist, recommended concentration 1 uM
T6 sequence (Q13133 whole entry): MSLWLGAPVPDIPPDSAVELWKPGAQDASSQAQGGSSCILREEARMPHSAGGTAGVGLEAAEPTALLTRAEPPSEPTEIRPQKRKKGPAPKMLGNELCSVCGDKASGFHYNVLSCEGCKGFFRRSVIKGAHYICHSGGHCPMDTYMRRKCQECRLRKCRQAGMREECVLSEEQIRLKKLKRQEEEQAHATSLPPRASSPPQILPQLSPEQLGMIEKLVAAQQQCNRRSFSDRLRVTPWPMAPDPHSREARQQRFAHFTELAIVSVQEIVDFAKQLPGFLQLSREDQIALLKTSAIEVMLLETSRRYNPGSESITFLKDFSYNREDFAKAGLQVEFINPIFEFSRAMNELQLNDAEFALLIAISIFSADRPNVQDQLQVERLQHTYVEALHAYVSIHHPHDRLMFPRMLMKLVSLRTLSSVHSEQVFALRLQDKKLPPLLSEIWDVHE

[11] = target: T7, Oxysterols receptor LXR-beta (Homo sapiens, UniProt P55055); test: Affinity On-target Cellular interaction: (Reporter gene assay (HEK293T cells)) EUB0001166a NR1H2; type: functional, cell-based, HEK-293T; set-up: mode of action Agonist, recommended concentration 1 uM
T7 sequence (P55055 whole entry): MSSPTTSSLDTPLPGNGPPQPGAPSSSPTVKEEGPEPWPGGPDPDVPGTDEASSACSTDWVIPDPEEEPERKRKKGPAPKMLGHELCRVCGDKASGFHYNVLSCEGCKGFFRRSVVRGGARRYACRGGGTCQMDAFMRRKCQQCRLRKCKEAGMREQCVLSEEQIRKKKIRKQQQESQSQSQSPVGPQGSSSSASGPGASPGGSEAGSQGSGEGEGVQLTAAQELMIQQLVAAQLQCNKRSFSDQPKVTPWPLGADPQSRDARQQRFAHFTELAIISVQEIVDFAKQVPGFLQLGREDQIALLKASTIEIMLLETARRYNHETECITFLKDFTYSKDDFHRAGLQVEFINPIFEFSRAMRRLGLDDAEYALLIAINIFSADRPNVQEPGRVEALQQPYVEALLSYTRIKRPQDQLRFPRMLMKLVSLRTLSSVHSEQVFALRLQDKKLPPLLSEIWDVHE

Adenosine kinase = Adenosine kinase (Homo sapiens, UniProt P55263); test: Affinity On-target Cellular interaction: (Intact cell adenosine phosphorylation assay (radiochemical), IMR-32 human neuroblastoma cells) EUB0002485aCl ADK; type: functional, cell-based; set-up: mode of action Inhibitor, recommended concentration 1 uM
[12] = target: T7, Oxysterols receptor LXR-beta; test: Affinity On-target Cellular interaction: (Reporter gene assay (HEK293T cells)) EUB0001167a NR1H2; type: functional, cell-based, HEK-293T; set-up: mode of action Agonist, recommended concentration 1 uM
[13] = target: T3, Nuclear receptor ROR-gamma
[14] = target: T2, Nuclear receptor ROR-beta; test: Affinity On-target Cellular interaction: (Reporter gene assay (HEK293T cells)) EUB0001158a RORB; type: functional, cell-based, HEK-293T; set-up: mode of action Inverse Agonist, recommended concentration 1 uM
[15] = target: T4, Nuclear receptor ROR-alpha; test: Affinity On-target Cellular interaction: (Reporter gene assay (HEK293T cells)) EUB0001158a RORA; type: functional, cell-based, HEK-293T; set-up: mode of action Inverse Agonist, recommended concentration 1 uM
[16] = target: T5, Nuclear receptor subfamily 1 group D member 1; test: Affinity On-target Cellular interaction: (Reporter gene assay (HEK293T cells)) EUB0001153a NR1D1; type: functional, cell-based, HEK-293T; set-up: mode of action Antagonist, recommended concentration 10 uM
Histone deacetylase 2 = Histone deacetylase 2 (Homo sapiens, UniProt Q92769); test: Affinity On-target Cellular interaction: (Inhibition of enzyme activity in 293T cells transfected with vector alone) EUB0002519a HDAC2; type: functional, cell-based, HEK-293T; set-up: mode of action Inhibitor, recommended concentration 1 uM
Histone deacetylase 1 = Histone deacetylase 1 (Homo sapiens, UniProt Q13547); test: Affinity On-target Cellular interaction: (Inhibition of enzyme activity in 293T cells transfected with vector alone) EUB0002519a HDAC1; type: functional, cell-based, HEK-293T; set-up: mode of action Inhibitor, recommended concentration 1 uM
Histone deacetylase 1, sequence (Q13547 whole entry): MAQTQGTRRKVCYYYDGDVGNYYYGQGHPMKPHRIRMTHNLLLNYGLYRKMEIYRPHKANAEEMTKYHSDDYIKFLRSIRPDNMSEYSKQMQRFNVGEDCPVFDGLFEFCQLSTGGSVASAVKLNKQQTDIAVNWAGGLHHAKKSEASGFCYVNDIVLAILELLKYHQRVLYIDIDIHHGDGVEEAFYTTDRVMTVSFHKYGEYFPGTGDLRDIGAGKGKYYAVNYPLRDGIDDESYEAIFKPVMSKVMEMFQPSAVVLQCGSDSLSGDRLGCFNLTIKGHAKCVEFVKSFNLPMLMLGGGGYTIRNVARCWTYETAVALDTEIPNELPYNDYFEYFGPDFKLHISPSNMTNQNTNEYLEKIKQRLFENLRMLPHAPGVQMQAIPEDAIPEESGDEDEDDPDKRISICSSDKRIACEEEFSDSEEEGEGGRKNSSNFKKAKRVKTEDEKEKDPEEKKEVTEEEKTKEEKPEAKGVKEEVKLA

T5 sequence (P20393 whole entry): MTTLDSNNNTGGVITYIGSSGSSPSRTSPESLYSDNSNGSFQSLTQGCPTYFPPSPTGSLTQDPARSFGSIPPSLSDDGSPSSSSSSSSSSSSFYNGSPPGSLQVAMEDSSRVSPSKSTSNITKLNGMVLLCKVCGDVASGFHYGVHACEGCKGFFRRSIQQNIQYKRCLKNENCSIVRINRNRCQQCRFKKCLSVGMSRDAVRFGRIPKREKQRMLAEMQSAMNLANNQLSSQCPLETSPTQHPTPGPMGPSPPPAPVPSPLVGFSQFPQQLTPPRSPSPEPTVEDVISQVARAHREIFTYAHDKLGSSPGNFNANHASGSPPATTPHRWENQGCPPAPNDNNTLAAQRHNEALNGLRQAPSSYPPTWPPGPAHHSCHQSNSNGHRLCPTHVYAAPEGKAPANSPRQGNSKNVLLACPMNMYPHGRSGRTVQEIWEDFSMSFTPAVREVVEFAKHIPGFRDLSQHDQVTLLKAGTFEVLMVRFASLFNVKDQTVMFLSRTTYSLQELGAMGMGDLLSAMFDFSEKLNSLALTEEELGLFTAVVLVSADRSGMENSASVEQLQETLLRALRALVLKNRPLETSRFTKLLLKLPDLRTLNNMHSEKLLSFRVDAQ
T1 sequence (O75469 whole entry): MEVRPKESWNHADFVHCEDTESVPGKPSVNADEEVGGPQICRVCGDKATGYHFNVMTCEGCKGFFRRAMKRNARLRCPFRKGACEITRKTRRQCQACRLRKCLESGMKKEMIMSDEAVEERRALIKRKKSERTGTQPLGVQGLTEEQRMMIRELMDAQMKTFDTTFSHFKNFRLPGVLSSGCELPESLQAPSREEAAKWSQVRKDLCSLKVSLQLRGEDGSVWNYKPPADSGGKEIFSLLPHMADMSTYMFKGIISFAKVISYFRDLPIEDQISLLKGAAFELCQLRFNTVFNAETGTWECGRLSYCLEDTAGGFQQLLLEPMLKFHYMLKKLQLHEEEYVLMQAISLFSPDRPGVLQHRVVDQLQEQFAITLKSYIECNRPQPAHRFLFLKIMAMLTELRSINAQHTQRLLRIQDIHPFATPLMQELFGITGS
T4 sequence (P35398 whole entry): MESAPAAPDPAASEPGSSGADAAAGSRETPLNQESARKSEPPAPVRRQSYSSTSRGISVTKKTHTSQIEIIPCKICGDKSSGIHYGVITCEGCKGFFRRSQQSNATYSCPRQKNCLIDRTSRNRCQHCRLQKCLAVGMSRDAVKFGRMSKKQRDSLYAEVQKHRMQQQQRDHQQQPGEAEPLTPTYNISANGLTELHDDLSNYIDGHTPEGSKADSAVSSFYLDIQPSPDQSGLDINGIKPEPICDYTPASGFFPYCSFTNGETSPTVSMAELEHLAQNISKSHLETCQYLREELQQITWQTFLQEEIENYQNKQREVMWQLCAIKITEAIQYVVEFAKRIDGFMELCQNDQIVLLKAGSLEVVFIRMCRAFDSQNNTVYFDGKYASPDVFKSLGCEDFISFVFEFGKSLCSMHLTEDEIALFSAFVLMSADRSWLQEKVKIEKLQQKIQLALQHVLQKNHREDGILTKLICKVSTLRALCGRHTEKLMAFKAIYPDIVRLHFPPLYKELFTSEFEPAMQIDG
Histone-lysine N-methyltransferase EZH1, sequence (Q92800 whole entry): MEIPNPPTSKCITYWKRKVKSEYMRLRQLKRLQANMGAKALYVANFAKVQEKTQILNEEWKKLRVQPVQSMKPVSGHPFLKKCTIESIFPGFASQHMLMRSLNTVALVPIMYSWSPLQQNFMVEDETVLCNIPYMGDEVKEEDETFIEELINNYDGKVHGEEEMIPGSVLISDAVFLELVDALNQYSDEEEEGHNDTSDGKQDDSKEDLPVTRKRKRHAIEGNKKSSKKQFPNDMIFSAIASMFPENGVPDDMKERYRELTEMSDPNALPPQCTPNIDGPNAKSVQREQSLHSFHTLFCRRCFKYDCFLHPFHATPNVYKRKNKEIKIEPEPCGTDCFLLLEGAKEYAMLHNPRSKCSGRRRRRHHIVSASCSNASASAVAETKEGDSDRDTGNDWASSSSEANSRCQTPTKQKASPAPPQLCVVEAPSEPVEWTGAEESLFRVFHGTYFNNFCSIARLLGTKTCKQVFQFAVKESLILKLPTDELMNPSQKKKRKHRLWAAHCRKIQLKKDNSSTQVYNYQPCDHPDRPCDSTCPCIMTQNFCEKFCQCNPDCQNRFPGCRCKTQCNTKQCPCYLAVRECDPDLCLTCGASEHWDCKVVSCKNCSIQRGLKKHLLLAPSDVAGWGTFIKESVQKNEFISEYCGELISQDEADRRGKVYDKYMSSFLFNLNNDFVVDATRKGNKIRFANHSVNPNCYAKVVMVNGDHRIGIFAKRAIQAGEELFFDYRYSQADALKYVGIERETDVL
Sodium- and chloride-dependent glycine transporter 1, sequence (P48067 whole entry): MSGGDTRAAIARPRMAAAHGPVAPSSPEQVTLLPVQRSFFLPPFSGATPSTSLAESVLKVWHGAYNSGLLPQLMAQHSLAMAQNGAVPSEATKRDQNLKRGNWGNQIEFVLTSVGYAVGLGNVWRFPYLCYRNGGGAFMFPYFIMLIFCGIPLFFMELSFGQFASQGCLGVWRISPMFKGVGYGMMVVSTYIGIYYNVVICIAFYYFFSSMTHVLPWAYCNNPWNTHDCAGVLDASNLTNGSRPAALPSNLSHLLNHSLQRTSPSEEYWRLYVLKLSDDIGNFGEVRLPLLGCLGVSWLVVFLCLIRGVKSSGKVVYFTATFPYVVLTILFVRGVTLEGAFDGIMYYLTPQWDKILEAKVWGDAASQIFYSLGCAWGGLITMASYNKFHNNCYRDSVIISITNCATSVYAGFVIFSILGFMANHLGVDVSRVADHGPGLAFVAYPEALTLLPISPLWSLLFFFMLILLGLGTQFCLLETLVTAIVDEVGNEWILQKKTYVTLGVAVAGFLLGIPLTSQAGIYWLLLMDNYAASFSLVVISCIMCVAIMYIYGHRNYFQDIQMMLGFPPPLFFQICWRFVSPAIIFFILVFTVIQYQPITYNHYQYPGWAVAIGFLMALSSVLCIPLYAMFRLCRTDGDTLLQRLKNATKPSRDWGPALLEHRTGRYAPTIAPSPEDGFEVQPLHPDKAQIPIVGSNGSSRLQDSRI
Histone deacetylase 2, sequence (Q92769 whole entry): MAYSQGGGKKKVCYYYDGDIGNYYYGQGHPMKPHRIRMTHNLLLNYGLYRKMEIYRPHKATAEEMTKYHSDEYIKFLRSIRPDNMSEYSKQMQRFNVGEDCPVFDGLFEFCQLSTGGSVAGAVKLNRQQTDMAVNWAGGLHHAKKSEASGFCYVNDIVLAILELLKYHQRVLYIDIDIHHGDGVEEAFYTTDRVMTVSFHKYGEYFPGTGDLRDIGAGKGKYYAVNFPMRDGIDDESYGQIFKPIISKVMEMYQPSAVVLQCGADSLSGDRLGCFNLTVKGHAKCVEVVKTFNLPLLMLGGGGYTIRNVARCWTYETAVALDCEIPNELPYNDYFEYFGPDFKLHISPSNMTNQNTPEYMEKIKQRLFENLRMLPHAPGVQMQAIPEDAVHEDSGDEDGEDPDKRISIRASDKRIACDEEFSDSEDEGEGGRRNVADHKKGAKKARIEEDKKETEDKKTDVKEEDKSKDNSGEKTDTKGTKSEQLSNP
Nuclear receptor subfamily 1 group D member 2, sequence (Q14995 whole entry): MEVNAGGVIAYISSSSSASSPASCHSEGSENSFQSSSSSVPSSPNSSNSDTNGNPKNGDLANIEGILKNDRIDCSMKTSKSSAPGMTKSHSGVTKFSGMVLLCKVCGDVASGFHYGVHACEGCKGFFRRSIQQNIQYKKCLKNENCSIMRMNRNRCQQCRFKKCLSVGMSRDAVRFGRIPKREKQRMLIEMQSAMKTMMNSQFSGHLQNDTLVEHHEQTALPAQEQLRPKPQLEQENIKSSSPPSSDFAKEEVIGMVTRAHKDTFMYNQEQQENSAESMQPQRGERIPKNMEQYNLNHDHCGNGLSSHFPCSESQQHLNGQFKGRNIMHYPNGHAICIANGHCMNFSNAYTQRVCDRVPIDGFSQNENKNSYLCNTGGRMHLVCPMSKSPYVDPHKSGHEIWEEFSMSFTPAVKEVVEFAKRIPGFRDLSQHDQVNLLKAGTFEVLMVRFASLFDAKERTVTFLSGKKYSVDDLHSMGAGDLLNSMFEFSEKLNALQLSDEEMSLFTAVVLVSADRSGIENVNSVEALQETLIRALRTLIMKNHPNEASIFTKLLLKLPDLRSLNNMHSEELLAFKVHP
Adenosine kinase, sequence (P55263 whole entry): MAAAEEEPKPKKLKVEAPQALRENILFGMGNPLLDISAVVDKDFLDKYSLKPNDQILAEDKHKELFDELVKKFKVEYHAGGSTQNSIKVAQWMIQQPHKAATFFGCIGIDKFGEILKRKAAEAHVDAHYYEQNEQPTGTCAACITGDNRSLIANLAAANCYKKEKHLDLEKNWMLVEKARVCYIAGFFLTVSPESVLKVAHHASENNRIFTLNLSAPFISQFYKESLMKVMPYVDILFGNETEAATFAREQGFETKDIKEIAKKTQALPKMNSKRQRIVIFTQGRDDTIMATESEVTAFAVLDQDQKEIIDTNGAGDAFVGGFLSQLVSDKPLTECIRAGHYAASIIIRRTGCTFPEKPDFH

IC50 [1]: 5 nM
SMILES: C[C@@H](Oc1ccc(S(C)(=O)=O)cc1C(=O)N1C[C@@H]2C[C@]2(c2cc(C(F)(F)F)on2)C1)C(F)(F)F [ICLEPERTIN]

SMILES: CC(C)c1c(CN(C)C(C)Cc2ccccc2)n(C)n(-c2ccccc2)c1=O (centres undefined) [FAMPROFAZONE]
EC50 [2]: 130 nM

IC50 [3]: 1500 nM | IC50 [4]: 3.2 µM | IC50 [5]: 500 nM
SMILES: O=S(=O)(Nc1ccc(C(O)(C(F)(F)F)C(F)(F)F)cc1)c1cccs1

IC50 [6]: < 100 nM
SMILES: CCN(c1cc(C#CCN2CCOCC2)cc(C(=O)NCc2c(C)cc(C)[nH]c2=O)c1C)[C@H]1CC[C@H](N(C)CCOC)CC1

EC50 [7]: 3 µM | EC50 [8]: 2000 nM
SMILES: CCCCCNC(=O)N1CCC(CN(Cc2ccc(Cl)cc2)Cc2ccc([N+](=O)[O-])s2)C1 (centres undefined) [SR9011]

EC50 [9]: 6 µM
SMILES: O=c1[nH]c2ccccc2n1CCCN1CCN(C(c2ccccc2)c2ccccc2)CC1 [OXATOMIDE]

EC50 [10]: 200 nM | EC50 [11]: 300 nM
SMILES: CC(C)(O)c1cn(-c2ccc(-c3cccc(S(C)(=O)=O)c3)cc2)c(C(C)(C)c2ccccc2Cl)n1 [BMS-779788]

IC50 (Adenosine kinase): 51 nM
SMILES: Nc1ncnc2nc(-c3ccc(N4CCOCC4)nc3)cc(-c3cccc(Br)c3)c12

EC50 [12]: 1 nM
SMILES: CC(=O)Oc1ccc2c(c1)[C@@]1(C)CCC[C@](C)(C(=O)OC(=O)[C@@]3(C)CCC[C@]4(C)c5cc(OC(C)=O)ccc5CC[C@@H]34)[C@@H]1CC2 [ACETYL PODOCARPIC ACID ANHYDRIDE]

SMILES: CC(=O)Nc1nc(C)c(S(=O)(=O)Nc2ccc(C(O)(C(F)(F)F)C(F)(F)F)cc2)s1
IC50 [13]: 110 nM | IC50 [14]: 1100 nM | IC50 [15]: 900 nM

IC50 [16]: 470 nM
SMILES: CCOC(=O)C1Cc2ccccc2CN1C(=O)c1ccc(SC)s1 (centres undefined)

IC50 (Histone deacetylase 2): 300 nM | IC50 (Histone deacetylase 1): 300 nM
SMILES: Nc1ccc(-c2cccs2)cc1NC(=O)c1ccc(NC=O)cc1
